Columns and labels:
[1] = system: Huh7 (human liver cancer cells); assay: In vitro proliferation inhibition (CCK-8), Huh7; type: cell-based
Description: • 1) Cell sources: HeLa (human cervical cancer cells), CaSki (human cervical cancer intestinal metastasis cells), Huh7 (human liver cancer cells), HepG2 (human liver cancer cells), Hep3B (human liver cancer cells) were purchased from the Chinese Academy of Sciences cell bank (Shanghai); LO2 (human normal liver cells) and HcerEpic (human normal uterine epithelial cells) were from ATCC. • 2) Cell culture and passage: The cell culture and passage method is the same as that described in “The inhibitory effect of compounds on the OCT4 protein in tumor stem cells (CSC)”. • 3) Cell dosing treatment: The each type of cells mentioned above was digested, counted, and inoculated in each well of the 96 well cell culture plate (#3988, Corning) at a density of 5000 cells/200 μl culture medium. They were cultured in a cell culture incubator at 37° C. and 5% CO2 for 24 hours to allow the cells to fully adherent to the wall. Then, the original culture medium was replaced with complete culture medium containing gradient diluted KZT-A5 (each concentration with 3 repeated wells) as well as DMSO (#D5879, Sigma Aldrich) solvent control, and they are cultured for additional 72 hours. • 4) Pharmacodynamic test and statistics: First, the morphology of cells treated with the above compounds was observed, photographed and recorded using an inverted phase contrast microscope (X71, Olympus). Then the original culture medium was replaced with phenol red free culture medium containing CCK-8 detection reagent (#E606335, Shanghai Shenggong) respectively, and they are cultured in the incubator for additional 2 hours. Then the OD450 nm absorbance value (OD value) was measured on a multifunctional enzyme-linked immunosorbent assay (168-1130, Bio Rad). After the cells were treated with the test compound, the equations for calculating the cell survival rate or cell growth rate is: survival rate=GD value of the treated group/OD value of the control group×100%; the equations for calculating the growth inhibition rate of compounds on cell proliferation is: inhibition rate=(OD value of control group−OD value of the treated group)/OD value of control group×100%. Further, the IC50 of each compound was calculated in SPSS based on the inhibition rate.
• 1) Cell sources: Huh7 (human liver cancer cells), HepG2 (human liver cancer cells), Hep3B (human liver cancer cells), and HeLa (human cervical cancer cells) were all purchased from the Chinese Academy of Sciences cell bank (Shanghai), while LO2 (human normal liver cells) was obtained from ATCC. • 2) Cell culture and passage: The cell culture and passage method is the same as that described in “The inhibitory effect of compounds on human tumor cell lines from different tissue sources (1)”. • 3) Cell dosing treatment: The cell dosing treatment method is the same as that described in “The inhibitory effect of compounds on human tumor cell lines from different tissue sources (1). • 4) Pharmacodynamic test and statistics: The pharmacodynamic test and statistics method is the same as that described in “The inhibitory effect of compounds on human tumor cell lines from different tissue sources (1)”. The IC50 value data of the compound on each type of tumor cells is the average±standard deviation of three wells in one test.

[2] = system: JAK1/2-STAT3 signaling pathway; assay: Inhibitory effect on JAK/STAT signaling pathway biomarkers in HeLa cells (Western blot); type: cell-based, human; conditions: HeLa 3A11, 1, 10, 100 μM, 72 hours, FIG. 4
Description: • 1) Cell source: HeLa cell line 3A11 with endogenous high expression of OCT4, prepared by the inventor's laboratory. • 2) Cell culture and passage: The cell culture and passage method is the same as that described in “The inhibitory effect of compounds on the OCT4 protein in tumor stem cells (CSC)”. • 3) Cell dosing treatment: The above-mentioned HeLa cells were digested, counted, and inoculated into each well of the 96 well cell culture plate (#3988, Corning) at a density of 5000 cells/200 μl culture medium. They were cultured in a cell culture incubator at 37° C. and 5% CO2 for 24 hours to allow the cells to fully adherent to the wall. Then, the original culture medium was replaced with complete culture medium containing 1 μM, 10 μM, and 100 μM KZT compounds or AH057 (each compound at each concentration with 3 repeated wells) as well as DMSO (#D5879, Sigma Aldrich) solvent control, and they are cultured for additional 72 hours. • 4) Preparation of test samples: The preparation of test samples method is the same as that described in “The inhibitory effect of compounds on the OCT4 protein in tumor stem cells (CSC)”. • 5) Detection of JAK/STAT signaling pathway biomarker: HeLa cells have been reported to continuously activate JAK1/2 and further activate STAT3 through the IL-6 autocrine pathway. […]

[3] = system: HepG2 (human liver cancer cells); assay: In vitro proliferation inhibition (CCK-8), HepG2; type: cell-based; conditions: for IC50: Homo sapiens
Description: • 1) Cell sources: HeLa (human cervical cancer cells), CaSki (human cervical cancer intestinal metastasis cells), Huh7 (human liver cancer cells), HepG2 (human liver cancer cells), Hep3B (human liver cancer cells) were purchased from the Chinese Academy of Sciences cell bank (Shanghai); LO2 (human normal liver cells) and HcerEpic (human normal uterine epithelial cells) were from ATCC. • 2) Cell culture and passage: The cell culture and passage method is the same as that described in “The inhibitory effect of compounds on the OCT4 protein in tumor stem cells (CSC)”. • 3) Cell dosing treatment: The each type of cells mentioned above was digested, counted, and inoculated in each well of the 96 well cell culture plate (#3988, Corning) at a density of 5000 cells/200 μl culture medium. They were cultured in a cell culture incubator at 37° C. and 5% CO2 for 24 hours to allow the cells to fully adherent to the wall. Then, the original culture medium was replaced with complete culture medium containing gradient diluted KZT-A5 (each concentration with 3 repeated wells) as well as DMSO (#D5879, Sigma Aldrich) solvent control, and they are cultured for additional 72 hours. • 4) Pharmacodynamic test and statistics: First, the morphology of cells treated with the above compounds was observed, photographed and recorded using an inverted phase contrast microscope (X71, Olympus). Then the original culture medium was replaced with phenol red free culture medium containing CCK-8 detection reagent (#E606335, Shanghai Shenggong) respectively, and they are cultured in the incubator for additional 2 hours. Then the OD450 nm absorbance value (OD value) was measured on a multifunctional enzyme-linked immunosorbent assay (168-1130, Bio Rad). After the cells were treated with the test compound, the equations for calculating the cell survival rate or cell growth rate is: survival rate=GD value of the treated group/OD value of the control group×100%; the equations for calculating the growth inhibition rate of compounds on cell proliferation is: inhibition rate=(OD value of control group−OD value of the treated group)/OD value of control group×100%. Further, the IC50 of each compound was calculated in SPSS based on the inhibition rate. […]

[4] = system: HeLa cells; assay: Clone formation of HeLa cells, single drugs and combination; type: cell-based, human; conditions: 700 nM KZT-A5, 100 nM SGI-1027, two weeks, compared with DMSO control, FIG. 7
Description: • 1) Cell source: HeLa cells were purchased from the Chinese Academy of Sciences Cell Bank (Shanghai). • 2) Cell culture and passage: The cell culture and passage method is the same as that described in “Inhibition of OCT4 protein in tumor stem cells (CSCs) by compounds”. • 3) Cell dosing treatment: The cells were inoculated into a 6-well plate containing the aforementioned culture medium at a density of 200 cells per well. They were divided into four groups, and DMSO (as blank control group), 700 nM KZT-A5 (as KZT-A5 single drug group), 100 nM SGI-1027 (as SGI-1027 single drug group), and 700 nM KZT-A5+100 nM SGI-1027 (as combination group) was added respectively. After two weeks, they were photographed, and the number of clones was counted in each group respectively.

- IC50 ([1]; Homo sapiens, Huh-7, 72 h, Huh7, 72 hours, CCK-8, average of three wells in one test): < 1000 nM
- IC50 ([1]; Homo sapiens, Huh-7, Huh7, test (2), average±standard deviation of three wells): 1420 ± 120 nM
- IC50 ([1]; Huh7, 72 hours, CCK-8, average of three wells in one test): 800 nM
- IC50 ([3]; HepG2, 72 hours, CCK-8, average of three wells in one test): 3130 nM
- IC50 ([3]; HepG2, test (2), average±standard deviation of three wells): 3160 ± 80 nM
Compound: COc1cc(/C=C2\CCc3c([nH]c4ccc(C)cc34)C2=O)ccc1O [KZT-A5]
- inhibitory effect on viability compared with AH057 ([1]; Huh7, FIG. 6): more significant inhibitory effect
- inhibition of activation of JAK1/2-STAT3 signaling pathway [2]: effectively inhibit the activation of the JAK1/2-STAT3 signaling pathway in a dose-dependent manner
- inhibitory effect on viability compared with AH057 ([3]; HepG2, FIG. 6): more significant inhibitory effect
- inhibition of clone formation [4]: significantly inhibits clone formation
